Patent EP4678638A1, “NEW E3 UBIQUITIN LIGASE LIGAND, PROTEIN DEGRADATION AGENT AND USE THEREOF” (priority 2023, dated 2024)
pIC50: −log10 of the molar value. Where two headings read alike, the source gives them in different places.

Columns and labels:
SW620 = experiment: CCK-8 proliferation, SW620; format: cell-based; conditions: Homo sapiens, SW-620; CCK-8; 96 hours; read-out: Inhibitory activity (IC50) on tumor cell proliferation, SW620
Method in brief: (§1)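 Cells seeded, then after 24 h treated with 10 concentrations (top 10 µM, 5-fold serial dilution) for a line-specific time at 37°C, 5% CO2. Viability read by CCK-8; IC50 fitted from growth-inhibition curves.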

MGC-803 = experiment: CCK-8 proliferation, MGC-803 (heads: MGC80-3, MGC803); format: cell-based, Human; conditions: Homo sapiens, MGC-803; for pIC50: CCK-8, 72 hours, read-out: Inhibitory activity (IC50) on tumor cell proliferation, MGC80-3
Method in brief: as §1

BXPC-3 = experiment: CCK-8 proliferation, BXPC-3; format: cell-based; conditions: Homo sapiens, 96 hours, read-out: Inhibitory activity (IC50) on tumor cell proliferation, BXPC-3
Protocol: (§2) The tumor cells used herein were cultured in a cell culture medium listed in table A1 at 37°C in an incubator with 5% CO2. Prior to experimentation, all cell lines used were correctly identified by STR profiling, and tested negative for mycoplasma contamination using a mycoplasma detection kit through routine screenings. Table A1. Tumor cells and cell culture medium used in the present disclosure
(§3) IC50 values of the compounds of the present disclosure (including the compounds in Table 1, and compounds of examples) were measured using the Meilun Cell Counting Kit-8 kit from Dalian Meilun Biotech Co., Ltd. Assay details are as follows: tumor cells were seeded in a 96-well plate at a density listed in Table A2. After 24h, 100 µL of the inoculated cells were treated with 0.5µL of the compounds of the present disclosure (including the compounds in Tables 1 and 2, and compounds of examples) at 10 different successively decreasing concentrations (starting at the highest concentration of 10µM; 5-fold serial dilutions). After the cells were treated with the compounds of the present disclosure for a period of time, the cell viability detection reagent was added to the culture medium for cell viability assessment according to the instructions provided with the CCK-8 kit. […] The growth inhibition of the compounds of the present disclosure on cells was plotted by Prism Graphpad software, and the IC50 values of the compounds of the present disclosure were calculated therefrom. […] Seeding protocol and treatment time for tumor cells

MV-4-11 = experiment: CCK-8 proliferation, MV-4-11; format: cell-based, Human; conditions: Homo sapiens, MV4-11; for pIC50: CCK-8, 72 or 96 hours, read-out: Inhibitory activity (IC50) on tumor cell proliferation, MV-4-11
Method in brief: as §1

CAL-62 = experiment: CCK-8 proliferation, CAL-62; format: cell-based; conditions: Homo sapiens, 72 hours, read-out: Inhibitory activity (IC50) on tumor cell proliferation, CAL-62
Protocol: as §2, §3

MM.1R = experiment: CCK-8 proliferation, MM.1R; format: cell-based; conditions: CCK-8, 72 hours, read-out: Inhibitory activity (IC50) on tumor cell proliferation, MM.1R
Method in brief: as §1

CCRF-CEM = experiment: CCK-8 proliferation, CCRF-CEM; format: cell-based, Human; conditions: Homo sapiens; for pIC50: CCRF-CEM, CCK-8, 96 hours, read-out: Inhibitory activity (IC50) on tumor cell proliferation, CCRF-CEM
Method in brief: as §1

Jurkat = experiment: CCK-8 proliferation, Jurkat; format: cell-based, Human; conditions: Homo sapiens; for pIC50: Jurkat, CCK-8, 96 hours, read-out: Inhibitory activity (IC50) on tumor cell proliferation, Jurkat
Method in brief: as §1

LNcap = experiment: CCK-8 proliferation, LNcap; format: cell-based; conditions: Homo sapiens; Table B10, compounds designed based on the IRAK4 inhibitors; Lncap cells; read-out: Inhibitory activity (IC50, nM) on tumor cell proliferation, Lncap
Protocol: as §2, §3

MM.1S = experiment: CCK-8 proliferation, MM.1S; format: cell-based; conditions: Homo sapiens, MM1.S; Table B10, compounds designed based on the IRAK4 inhibitors; MM.1S cells; read-out: Inhibitory activity (IC50, nM) on tumor cell proliferation, MM.1S
Method in brief: as §1

SR = experiment: CCK-8 proliferation, SR; format: cell-based, Human; conditions: Homo sapiens; for pIC50: SR, CCK-8, 72 hours, read-out: Inhibitory activity (IC50) on tumor cell proliferation, SR
Method in brief: as §1

[1] = target: T1, human Cereblon WT GST-tagged protein (Homo sapiens, UniProt Q96SW2); experiment: CRBN binding, HTRF (CEREBLON BINDING kit); conditions: HTRF; for inhibition at 0.5 µM / inhibition at 2 µM: Table II-2, CRBN binding screening; for inhibition at 0.5 µM: read-out: Inhibition rate (%) at 0.5µM; for inhibition at 2 µM: read-out: Inhibition rate (%) at 2 µM
T1 construct: purchased CISBIO 64BDCRBNPEH
Method in brief: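 Competitive HTRF: GST-tagged human WT Cereblon mixed with compound, Thalidomide-Re tracer and GST Eu antibody, incubated 3 h at room temperature. Signals read at 620 and 665 nm.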

H1299 = experiment: CCK-8 proliferation, H1299; design: species or system Human; conditions: Homo sapiens, NCI-H1299; Table B10, compounds designed based on the IRAK4 inhibitors; H1299 cells; read-out: Inhibitory activity (IC50, nM) on tumor cell proliferation, H1299
Protocol: as §2, §3

FAK = target: T2, FAK (Homo sapiens, UniProt Q05397); experiment: Western blot degradation of FAK; format: cell-based; conditions: Table D7
T2 construct: evaluate the effects of the compounds of the present disclosure on the expression of target proteins in cells; endogenous in cells
Method in brief: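 Quantification by ImageJ densitometry of Western blot bands: DC50 is the fitted concentration halving band intensity relative to DMSO. Percent remaining uses internal-control normalization, and degradation rate is its complement.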

H1975 = experiment: CCK-8 proliferation, NCI-H1975 (H1975); format: cell-based, Human; conditions: Homo sapiens, NCI-H1975; CCK-8; 96 hours; read-out: Inhibitory activity (IC50) on tumor cell proliferation, H1975
Method in brief: as §1

THP-1 = experiment: CCK-8 proliferation, THP-1; format: cell-based; conditions: Homo sapiens, 72 hours, read-out: Inhibitory activity (IC50) on tumor cell proliferation, THP-1
Protocol: as §2, §3

T2 sequence (Q05397 whole entry, species assumed): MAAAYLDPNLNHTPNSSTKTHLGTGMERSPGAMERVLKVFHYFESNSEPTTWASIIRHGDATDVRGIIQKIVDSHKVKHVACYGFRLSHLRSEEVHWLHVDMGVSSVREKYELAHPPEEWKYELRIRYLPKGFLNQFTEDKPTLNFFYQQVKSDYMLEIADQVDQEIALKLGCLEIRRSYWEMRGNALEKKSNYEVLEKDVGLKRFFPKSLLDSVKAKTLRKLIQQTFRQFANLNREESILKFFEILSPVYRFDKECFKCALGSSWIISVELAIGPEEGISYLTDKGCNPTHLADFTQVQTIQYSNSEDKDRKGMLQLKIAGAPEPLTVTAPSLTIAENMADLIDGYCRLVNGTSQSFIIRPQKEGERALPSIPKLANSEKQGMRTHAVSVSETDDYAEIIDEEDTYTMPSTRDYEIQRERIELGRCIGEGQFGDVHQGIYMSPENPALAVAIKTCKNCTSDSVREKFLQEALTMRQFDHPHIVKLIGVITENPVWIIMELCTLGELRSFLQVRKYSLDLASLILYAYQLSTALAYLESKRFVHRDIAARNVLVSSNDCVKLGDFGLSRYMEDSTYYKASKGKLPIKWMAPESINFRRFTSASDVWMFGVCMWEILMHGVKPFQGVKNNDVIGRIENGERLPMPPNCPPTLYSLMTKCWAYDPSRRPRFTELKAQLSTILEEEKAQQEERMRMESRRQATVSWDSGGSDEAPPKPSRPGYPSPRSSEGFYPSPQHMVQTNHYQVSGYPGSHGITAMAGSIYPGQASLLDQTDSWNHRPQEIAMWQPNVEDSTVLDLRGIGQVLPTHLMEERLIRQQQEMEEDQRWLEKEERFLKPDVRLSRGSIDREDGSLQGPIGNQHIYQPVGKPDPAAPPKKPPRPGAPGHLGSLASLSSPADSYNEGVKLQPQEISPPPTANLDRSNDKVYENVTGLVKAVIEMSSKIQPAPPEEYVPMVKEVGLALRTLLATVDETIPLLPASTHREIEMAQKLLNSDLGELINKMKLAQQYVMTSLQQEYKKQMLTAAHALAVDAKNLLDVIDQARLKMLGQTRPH
T1 sequence (Q96SW2 whole entry): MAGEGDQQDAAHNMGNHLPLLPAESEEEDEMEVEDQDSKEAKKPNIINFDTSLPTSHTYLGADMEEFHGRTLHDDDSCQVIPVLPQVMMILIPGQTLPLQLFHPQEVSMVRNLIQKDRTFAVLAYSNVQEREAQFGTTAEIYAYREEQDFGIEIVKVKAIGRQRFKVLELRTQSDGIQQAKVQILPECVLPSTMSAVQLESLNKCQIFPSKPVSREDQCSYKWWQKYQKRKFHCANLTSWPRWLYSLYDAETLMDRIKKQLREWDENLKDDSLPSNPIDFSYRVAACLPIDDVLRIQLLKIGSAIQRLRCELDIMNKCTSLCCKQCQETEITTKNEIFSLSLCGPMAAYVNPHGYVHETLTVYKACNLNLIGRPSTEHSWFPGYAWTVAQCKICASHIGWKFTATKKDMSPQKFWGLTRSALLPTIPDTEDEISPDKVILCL

| Structure (SMILES) | pIC50 (SW620) | pIC50 (BXPC-3) | pIC50 (MV-4-11) | pIC50 (MM.1R) | pIC50 (CCRF-CEM) | pIC50 (H1975) | pIC50 (CAL-62) | pIC50 (SR) | Degradation of substrate protein FAK (substrate protein remaining %) (FAK) | also measured |
| --- | --- | --- | --- | --- | --- | --- | --- | --- | --- | --- |
| Cc1ccc(-c2c(C)noc2C)cc1N(CC1CCN(Cc2ccc(C3CCC(=O)NC3=O)c(F)c2)CC1)c1ccc(C2(C#N)CC2)cc1 (stereo not drawn) [GT-04840, 1-(4-((5-(3,5-dimethylisoxazol-4-yl)-2-methylphenyl)((1-(4-(2,6-dioxopiperidin-3-yl)-3-fluorobenzyl)piperidin-4-yl)methyl)amino)phenyl)cyclopropane-1-carbonitrile] | 6.30 to 7.00 | 7.30 to 8.00 |  |  |  |  |  |  |  | pIC50 (MGC-803): 6.30 to 7.00 |
| CC[C@@H]1[C@H](F)C(=O)N[C@@H]1COc1nccc2cc(C(N)=O)c(OC)cc12 [PF06650833, reference compound] |  |  |  |  |  |  |  |  |  | IC50 (LNcap): > 10000 nM; IC50 (MM.1S): > 10000 nM; IC50 (SR; Table B10, compounds designed based on the IRAK4 inhibitors, SR cells, read-out: Inhibitory activity (IC50, nM) on tumor cell proliferation, SR): 1000 to 5000 nM; IC50 (MGC-803; Table B10, compounds designed based on the IRAK4 inhibitors, MGC803 cells, read-out: Inhibitory activity (IC50, nM) on tumor cell proliferation, MGC803): 5000 to 10000 nM; IC50 (MV-4-11; Table B10, compounds designed based on the IRAK4 inhibitors, MV-4-11 cells, read-out: Inhibitory activity (IC50, nM) on tumor cell proliferation, MV-4-11): 1000 to 5000 nM; pIC50 ([1]; Table II-1, CRBN binding): < 5.00; IC50 (H1299): 5000 to 10000 nM; IC50 (CCRF-CEM; Table B10, compounds designed based on the IRAK4 inhibitors, CCRF-CEM cells, read-out: Inhibitory activity (IC50, nM) on tumor cell proliferation, CCRF-CEM): 5000 to 10000 nM; IC50 (Jurkat; Table B10, compounds designed based on the IRAK4 inhibitors, Jurkat cells, read-out: Inhibitory activity (IC50, nM) on tumor cell proliferation, Jurkat): > 10000 nM |
| CNC(=O)c1ccccc1Nc1cc(Nc2ccc(N3CCC(N4CCN(Cc5ccc(C6CCC(=O)NC6=O)c(F)c5)CC4)CC3)cc2OC)ncc1C(F)(F)F (stereo not drawn) [GT-03600, 2-((2-((4-(4-(4-(4-(2,6-dioxopiperidin-3-yl)-3-fluorobenzyl)piperazin-1-yl)piperidin-1-yl)-2-methoxyphenyl)amino)-5-(trifluoromethyl)pyridin-4-yl)amino)-N-methylbenzamide] | 7.00 to 7.30 |  |  | 6.00 to 6.30 | 6.00 to 6.30 | 6.00 to 6.30 | 6.30 to 7.00 | 7.00 to 7.30 | A (A is defined as 0% ≤ substrate protein remaining % ≤ 80%) |  |
| Cc1ccc(-c2c(C)noc2C)cc1N(CC1CCN(Cc2ccc(C3CCC(=O)NC3=O)cc2)CC1)c1ccc(C2(C#N)CC2)cc1 (stereo not drawn) [GT-04839, 1-(4-((5-(3,5-dimethylisoxazol-4-yl)-2-methylphenyl)((1-(4-(2,6-dioxopiperidin-3-yl)benzyl)piperidin-4-yl)methyl)amino)phenyl)cyclopropane-1-carbonitrile] | 6.00 to 6.30 | 7.00 to 7.30 |  |  | 6.00 to 6.30 |  |  |  |  | pIC50 (MGC-803): 6.00 to 6.30 |
| Cc1ccc(-c2c(C)noc2C)cc1N(CC1CCN(Cc2cccc(NC3CCC(=O)NC3=O)c2)CC1)c1ccc(C2(C#N)CC2)cc1 (stereo not drawn) [GT-04841, 1-(4-((5-(3,5-dimethylisoxazol-4-yl)-2-methylphenyl)((1-(3-((2,6-dioxopiperidin-3-yl)amino)benzyl)piperidin-4-yl)methyl)amino)phenyl)cyclopropane-1-carbonitrile] |  | 6.30 to 7.00 |  |  |  |  |  |  |  | pIC50 (THP-1): 6.00 to 6.30 |
| CNC(=O)c1ccccc1Nc1cc(Nc2ccc(N3CCC(N(C)Cc4ccc(C5CCC(=O)NC5=O)c(F)c4)CC3)cc2OC)ncc1C(F)(F)F (stereo not drawn) [GT-03734, 2-((2-((4-(4-((4-(2,6-dioxopiperidin-3-yl)-3-fluorobenzyl)(methyl)amino)piperidin-1-yl)-2-methoxyphenyl)amino)-5-(trifluoromethyl)pyridin-4-yl)amino)-N-methylbenzamide] | 6.30 to 7.00 |  | 6.30 to 7.00 |  | 6.30 to 7.00 | 6.30 to 7.00 | 7.00 to 7.30 | 7.00 to 7.30 | A (A is defined as 0% ≤ substrate protein remaining % ≤ 80%) |  |
| Cc1ccc(-c2c(C)noc2C)cc1N(CC1CCN(Cc2cccc(N3CCC(=O)NC3=O)c2)CC1)c1ccc(C2(C#N)CC2)cc1 [GT-04842, 1-(4-((5-(3,5-dimethylisoxazol-4-yl)-2-methylphenyl)((1-(3-(2,4-dioxotetrahydropyrimidin-1(2H)-yl)benzyl)piperidin-4-yl)methyl)amino)phenyl)cyclopropane-1-carbonitrile] |  | 6.00 to 6.30 |  |  |  |  |  |  |  | pIC50 (THP-1): 6.00 to 6.30 |

Second part, led by results:

| pIC50 (SW620) | pIC50 (BXPC-3) | pIC50 (MV-4-11) | pIC50 (MM.1R) | pIC50 (CCRF-CEM) | pIC50 (H1975) | Structure (SMILES) | pIC50 (CAL-62) | pIC50 (SR) | Degradation of substrate protein FAK (substrate protein remaining %) (FAK) | also measured |
| --- | --- | --- | --- | --- | --- | --- | --- | --- | --- | --- |
|  |  | 6.30 to 7.00 | 6.00 to 6.30 | 5.30 to 6.00 |  | CNC(=O)c1ccccc1Nc1cc(Nc2ccc(N3CCOCC3)cc2OC)ncc1C(F)(F)F [PND-1186, reference compound] | 5.30 to 6.00 |  |  | pIC50 (Jurkat): 5.30 to 6.00 |
| 5.30 to 6.00 |  | 7.00 to 7.30 | 5.30 to 6.00 | 5.30 to 6.00 | 5.30 to 6.00 | CNC(=O)c1ccc(Nc2ncc(C(F)(F)F)c(NCc3nccnc3N(C)S(C)(=O)=O)n2)cc1 [Defactinib, reference compound] | 5.00 to 5.30 | 6.00 to 6.30 |  | pIC50 (Jurkat): 5.30 to 6.00 |
| 6.30 to 7.00 |  |  |  | 6.00 to 6.30 |  | CNC(=O)c1ccccc1Nc1cc(Nc2cc(C)c(N3CCC(N(C)Cc4ccc(C5CCC(=O)NC5=O)cc4)CC3)cc2OC(C)C)ncc1C(F)(F)F (stereo not drawn) [GT-04094, 2-((2-((4-(4-((4-(2,6-dioxopiperidin-3-yl)benzyl)(methyl)amino)piperidin-1-yl)-2-isopropoxy-5-methylphenyl)amino)-5-(trifluoromethyl)pyridin-4-yl)amino)-N-methylbenzamide] | 6.00 to 6.30 |  | A (A is defined as 0% ≤ substrate protein remaining % ≤ 80%) | inhibition at 0.5 µM [1]: 10 to 20%; inhibition at 2 µM [1]: 53 to 60% |
| 6.30 to 7.00 |  | 6.30 to 7.00 | 6.00 to 6.30 | 6.30 to 7.00 | 6.30 to 7.00 | CNC(=O)c1ccccc1Nc1cc(Nc2ccc(N3CCC(N(C)Cc4ccc(C5CCC(=O)NC5=O)cc4)CC3)cc2OC)ncc1C(F)(F)F (stereo not drawn) [GT-03733, 2-((2-((4-(4-((4-(2,6-dioxopiperidin-3-yl)benzyl)(methyl)amino)piperidin-1-yl)-2-methoxyphenyl)amino)-5-(trifluoromethyl)pyridin-4-yl)amino)-N-methylbenzamide] | 7.00 to 7.30 | 7.00 to 7.30 | A (A is defined as 0% ≤ substrate protein remaining % ≤ 80%) | inhibition at 0.5 µM [1]: 30 to 40%; inhibition at 2 µM [1]: 40 to 53% |
